Assays:
[1] = test system: vascular smooth muscle cells derived from normal human arteries; experiment: Suppression of PDGF-mediated migration of human vascular smooth muscle cells in vitro (Transwell chamber); assay type: cell-based; conditions: human PDGF 10 ng/ml, 6 hours; for No. of wandering cells: average cell count of five fields ± standard deviation, control 86.4±20.1
Experimental: To investigate the activity of the tested compound to inhibit cell migration, the migrated cells mediated by human platelet derived growth factor (PDGF) were measured in the following way using the vascular smooth muscle cells derived from normal human arteries and according to the method of MaCarthy et al. (J. Cell. Biol. 97, 772-777 (1983)). That is, a Transwell Chamber (Costar Co., registered trademark) was used to measure the inhibitory action. The chamber was divided into two layers, upper and lower, by a 8 µm pore size membrane filter (PVP - free polycarbonate filter, Nucleopore Co., registered trademark). The filter was precoated on its lower surface with 5 µg of rat tail collagen type 1 (Becton Dickinson Co.) To the upper chamber (100 µl) was added a 1.5 × 10^6/ml suspension of cells (DMEM (made by Flow Laboratories Co.) containing 0.1% BSA (made by Nakalai Tesque Co.) In the lower chamber (600 µl) was placed the same solution diluted by human PDGF (made by Becton Dickinson) to give a final concentration of 10 ng/ml. At this time, the tested compound was added in different concentrations to both the upper and lower chambers. The chambers were incubated at 37°C under 5% CO2 for 6 hours, then the filter was removed, fixed in 99.7% methanol, then stained with hematoxylin and eosin. The cells on the upper surface of the filter were removed by wiping with a cotton swab and the cells that had migrated to the lower surface of the filter were counted under a high output microscope (×200, ×400). Usually, five fields were counted per filter. The migrated cells were shown by the average cell count of five fields ± standard deviation. The significant difference was examined by the Student's two-tailed t test.

SD rats = experiment: Acute toxicity test, oral; assay type: in vivo; conditions: male SD rats, 6 weeks old, deaths/animals
Experimental: (§1) The above test compound was tested for acute toxicity using SD rats (6 weeks old, SPE, male) (p.o.), whereupon the results shown in the following Table 4 were obtained.

[2] = Acute toxicity test, oral; assay type: in vivo; conditions: rat, in vivo, po, male SD rats; judged from Table 4
Experimental: as §1

[3] = test system: rat vascular smooth muscle cells (SMC); experiment: Suppression of PDGF-induced wandering of rat vascular smooth muscle cells in vitro (blind well chamber); assay type: cell-based, rats; conditions: PDGF 20 ng/ml, 4 hours; for No. of wandering cells: average ± standard error, n=3, control 176±19; for Suppression rate: cell wandering suppression rate = 100 - (T/C x 100)
Experimental: Media tissue of the chest arteries of the rats was sampled in accordance with the method of Ross (J. Cell Biol. 50: 172-186, 1971), then was incubated by a Delvecco Modified Eagle Medium (DMEM) containing 10% fetal calf serum in a CO2 incubator (95% air-5% CO2, 37°C, humidity 100%). The fourth generation cultured cells were used for the experiment. The rat vascular smooth muscle cells (SMC) were freed by a 0.008% trypsin-0.01% EDTA solution and made to wander in DMEM containing 0.1% bovine serum albumin. The wandering of the cells was observed using a 24-well blind well chamber made by Neuro Probe. In the lower chambers were placed 100 µl amounts of a mixture of the cell wandering factor (platelet derived growth factor PDGF 20 ng/ml) and the drug. These were covered by a Nuclepore filter (pore size, 8 µm) made by Corning. 100 µl amounts of the incubation solution containing the drug and in which 5 × 10^5 cells/ml of SMC were made to wander were placed in the top chambers and allowed to stand in a CO2 incubator for 4 hours. After the end of the incubation, the smooth muscle cells were immobilized for each filter, then were Propidum dyed. The cells in the lower chambers were counted in four fields under a laser microscope in a 0.48 mm^2 area field. The average was used as the number of wandering cells.
The rate of suppression of cell wandering (%) was found from the following formula. Cell wandering suppression rate (%) = 100 - (T/C × 100) [formula] wherein, C and T respectively show the number of wandering cells at the time of addition of cell wandering factor minus the number of wandering cells at the time of no addition of cell wandering factor and the number of wandering cells at the time of addition of the drug.

[4] = test system: Rat Carotid Artery Endothelium; experiment: Suppression of intima thickening after balloon catheter trauma to rat carotid artery endothelium; assay type: in vivo, SD rats; conditions: for Intima: from 2 days before to 14 days after surgery, area of thickened intima; for Intima/Media / Media: 14 days after surgery; for Media: area of media; for Suppression rate: intima thickening suppression rate = (1-T/C) x 100 of Intima/Media versus solvent control
Experimental: The test was performed in the following manner in accordance with the method of Krauz et al. (Lab. Invest., vol. 49, p. 208, 1983). Male SD rats having a body weight of 400 to 500g was used. The neck of each rat was opened under anesthesia by sodium pentobarbitol, then a balloon catheter (Fogarty, 2F) was inserted from the right external carotid artery until the starting portion of the common carotid artery. The balloon was expanded by physiological saline to such an extent causing a light resistance, then the catheter was pulled out in that state up to the carotid artery to give trauma to the intima. This procedure was repeated three times, then the catheter was withdrawn and the external carotid artery was sewn up. After 14 days, the chest was opened under anesthesia by pentobarbitol, refluxing was performed from the left ventricle by physiological saline containing heparin (20 units/ml), then the left common carotid artery was excised and immobilized by neutral formalin solution. The immobilized carotid artery was dyed by Olsein dye, then the areas of the media and thickened portion of the intima were measured by an image resolution device (LUZEX2D).
The test drug began to be administered subcutaneously at a rate of 1.0 µg/rat/hr or 3.2 µg/rat/hr using a miniosmotic pump buried in the back of the rat from two days before the surgery and was continued until 14 days after the surgery. The activity of the drug in suppressing intima thickening was found from the following formula.

[5] = 1.0 µg/rat/hr s.c. by miniosmotic pump

## CCCCC[C@H](O)/C=C/[C@H]1[C@H](O)CC(=O)[C@@H]1CCCCCCC(=O)O [Prostaglandin E1, reference compound]
[1]; 10^-7 M
  No. of wandering cells: 82.6±17.8
[1]; 10^-8 M
  No. of wandering cells: 82.4±6.9
[1]; 10^-9 M
  Suppression rate: No significance
  No. of wandering cells: 91.0±9.8

## CCCC[C@@H](C)C[C@H](O)/C=C/[C@H]1[C@H](O)CC(=O)[C@@H]1SCCCCCC(=O)OC [Test Compound, (17R)-17,20-dimethyl-7-thiaprostaglandin E1 methyl ester]
[1]; 10^-7 M
  Suppression rate: 78.0%
  No. of wandering cells: 19.0±11.8
[1]; 10^-8 M
  Suppression rate: 41.0%
  No. of wandering cells: 51.0±9.5
[1]; 10^-9 M
  Suppression rate: 22.2%
  No. of wandering cells: 67.2±15.7
SD rats; 20 mg/kg p.o.
  No. of deaths: 0/2
SD rats; 100 mg/kg p.o.
  No. of deaths: 1/2
SD rats; 200 mg/kg p.o.
  No. of deaths: 2/2
[2]
  LD50: ~100 mg/kg
[3]; 10^-8 M
  No. of wandering cells: 107±15##(T) cells/0.48 mm^2
  Suppression rate: 39.2%
[3]; 10^-9 M
  No. of wandering cells: 117±19##(T) cells/0.48 mm^2
  Suppression rate: 33.5%
[4]; 1.0 µg/rat/hr s.c. by miniosmotic pump, average, standard error in the row below
  Intima: 0.118 mm²
[4]; [5]
  Intima/Media: 0.842
  Media: 0.14 mm²
[4]; 1.0 µg/rat/hr s.c.
  Suppression rate: 13.1%
[4]; 3.2 µg/rat/hr s.c. by miniosmotic pump, P < 0.01 vs control
  Intima: 0.093 mm²
[4]; 3.2 µg/rat/hr s.c. by miniosmotic pump, P < 0.05 vs control
  Intima/Media: 0.630
[4]; 3.2 µg/rat/hr s.c. by miniosmotic pump
  Media: 0.158 mm²
[4]; 3.2 µg/rat/hr s.c.
  Suppression rate: 31.4%

Reference: patent EP0722733A1, “BLOOD VESSEL THICKENING INHIBITOR AND SMOOTH MUSCLE FIBER MIGRATION INHIBITOR EACH CONTAINING 7-THIAPROSTAGLANDIN E 1? COMPOUND AS ACTIVE INGREDIENT” (TEIJIN LIMITED, priority 1993, dated 1995)
